We go through two compounds from article PMC11022729 (Advanced Science, 2024).

By Ki is commonly meant a measure of affinity in units of concentration, obtained from inhibition or displacement. For orientation: inhibition means how much of the control response was suppressed.

Data set [1] relates to mice. The data set can be described thus: Histamine-induced itch behavior. The conditions noted are these: i.p. Format: in vivo, mouse. An excerpt:
(§1) Chloroquine‐induced scratching in mice is driven by MrgprA3 activation in the NP2 population of sensory neurons.^[ [10], [29] ^] To further explore the antipruritic efficacy of compound 6 in histamine‐independent itch, we assessed the behavioral response after s.c. injection of the peptide Ser‐Leu‐Ile‐Gly‐Arg‐Leu (SLIGRL) that evokes scratching by activation of MrgprC11,^[ [30] ^] which is expressed in the NP2 and NP3 population.^[ [10] ^] […] Moreover, compound 6 ameliorated histamine‐independent itch evoked by s.c. injection of β‐alanine that activates MrgprD^[ [31] ^] in the NP1 population of sensory neurons^[ [10] ^] (Figure 3F). In contrast, scratching induced by subcutaneous histamine was not affected by compound 6 (Figure 3G). The lack of an effect on histamine‐evoked scratching was supported by the low affinity of compound 6 for histamine H1 receptors, which was determined using a [^3H]‐pyrilamine competition binding assay in vitro (Table S3, Supporting Information). […] We also investigated the efficacy of compound 6 after peroral (p.o.) delivery.
(§2) Three to four days before the day of the experiment, the fur on the dorsolateral aspect of the neck was shaved under brief isoflurane anesthesia. […] Number of scratching bouts directed toward the nape of the neck was assessed over 30 min by videotaping. […]

Data set [2] concerns mice. In words: DNFB model of allergic contact dermatitis (persistent itch). The format is in vivo, mouse. As to conditions: i.p. after the second DNFB exposure, vs vehicle. As for the experimental part: We next assessed the efficacy of compound 6 in the treatment of chronic itching. […] These findings are important because they indicate that Slack activators can reduce existing itching.
To induce persistent itch, a model of allergic contact dermatitis^[ [32] ^] was used. The fur on the dorsolateral aspect of the neck was shaved under brief isoflurane anesthesia. Three to four days later, the shaved skin area was exposed to 100 µL of 0.15% 2,4‐dinitrofluorobenzene (DNFB) in acetone/olive oil (3:1). After 10–11 days, the skin was shaved again, and the DNFB solution was applied 3–4 days later (i.e., two painting sessions 14 days apart). Ninety minutes after the second DNFB application, the mice were habituated to a plexiglass cylinder (30 cm diameter) for 15 min. Compound 6 hydrochloride or vehicle was administered i.p., and 15 min later, spontaneous scratching was recorded over 30 min by videotaping.

Another data set has as its target T1, human D2S receptor (Homo sapiens, UniProt P14416).
T1 construct: expressed in transfected cells; host or cells: CHO
The data set can be described thus: [3H]-spiperone competition binding assay, D2. As for the experimental part:
CHO cells stably expressing human dopamine D2short (D2R) and D3 receptor (D3R) were washed and harvested using PBS. […] The cell membrane homogenate was centrifuged (20 000 × g, 20 min, 4 °C), and the resulting cell pellet was resuspended in the binding buffer. Crude membrane extracts were kept at −80 °C until use. Before starting the experiments, cell membranes were thawed, homogenized by sonication (3 × 10 s), and stored in an ice‐cold binding buffer. […] Assays were performed at least in triplicate with appropriate concentrations ranging from 0.01 nM to 100 µM of the test compound. Non‐specific binding was determined using 10 µM haloperidol. By filtering through GF/B filters pretreated with 0.3% (m/v) polyethyleneimine, the bound radioligand was separated from free radioligand using a cell harvester. Radioactivity was measured using liquid scintillation counting. Data were evaluated using the GraphPad Prism 9 software (San Diego, CA, USA) with a nonlinear regression fit.

Data set [3] has as its system mice. In words: SLIGRL-induced itch behavior. Format: in vivo, mouse. As to conditions: 10 mg kg−1 i.p.
Excerpt: as §1, §2

The test system of data set [4] is mice. In words: Observation of mouse behavior / signs of toxicity after systemic administration. Format: in vivo. An excerpt:
To prepare for in vivo studies, we investigated the pharmacokinetic properties of compound 6. […] For comparison, we determined the plasma and brain loxapine levels. […] Collectively, the pharmacological and pharmacokinetic profiles of compound 6 make it an excellent molecule for in vivo pharmacodynamic studies.
With regard to the safety profile, it should be considered that Slack is expressed in various neuronal populations in the CNS, and gain‐of‐function mutations of KCNT1 have been associated with epileptic encephalopathies in humans.^[ [46] ^] Limited information exists concerning the incidence of seizures during loxapine treatment. […] However, the epileptogenic potential of brain‐penetrant Slack activators such as compound 6 should be carefully assessed in the future.

The target in the next data set is histamine H1 receptor (Homo sapiens, UniProt P35367). The data set can be described thus: SafetyScreen44 panel. The conditions noted are these: 10 µM. Also noted: purchased Eurofins Cerep P270. Format: binding. The procedure:
(§3) Measurements were performed in duplicate.
(§4) channel, which were obtainedfrom ratspecimens).
(§5) in brackets) specific for each target.

For data set [5], the system named is mice. In words: β-alanine-induced itch behavior. As to conditions: i.p. Format: in vivo, mouse.
Excerpt: as §1, §2

Another data set relates to Na+ channel. In words: SafetyScreen44 panel. The conditions noted are these: 10 µM.
In the next data set the target is T2, muscarinic M3 receptor (Homo sapiens, UniProt P20309).
T2 construct: purchased Eurofins Cerep P270
The data set can be described thus: biochemical. As to conditions: read-out: binding inhibition. The procedure: as §3, §4, §5

For another data set, the target named is T3, muscarinic M1 receptor (Homo sapiens, UniProt P11229).
T3 construct: purchased Eurofins Cerep P270
In words: biochemical. As to conditions: read-out: binding inhibition. The procedure: as §3, §4, §5

Data set [6] addresses T4, serotonin 5-HT1A receptor (Homo sapiens, UniProt P08908).
T4 construct: purchased Eurofins Cerep P270
The data set can be described thus: SafetyScreen44 panel. The conditions noted are these: read-out: binding inhibition. The procedure:
as §3, §4, §5

For data set [7], the target named is human ether-à-go-go (hERG) potassium channel (Homo sapiens, UniProt Q12809). In words: SafetyScreen44 panel. As to conditions: 10 µM. As for the experimental part: as §3, §4, §5
In data set [8] the target is T5, serotonin 5-HT1B receptor (Homo sapiens, UniProt P28222).
T5 construct: purchased Eurofins Cerep P270
In words: SafetyScreen44 panel. The conditions noted are these: read-out: binding inhibition. As for the experimental part: as §3, §4, §5

Another data set deals with serotonin 5-HT3 receptor (Homo sapiens, UniProt P46098). The data set can be described thus: SafetyScreen44 panel. The conditions noted are these: read-out: binding inhibition. The procedure: as §3, §4, §5
The target in the next data set is histamine H2 receptor (Homo sapiens, UniProt P25021). In words: SafetyScreen44 panel. As to conditions: read-out: binding inhibition. As for the experimental part: as §3, §4, §5
In the next data set the target is muscarinic M2 receptor (Homo sapiens, UniProt P08172). The data set can be described thus: SafetyScreen44 panel. As to conditions: read-out: binding inhibition. The procedure:
as §3, §4, §5

Each structure is given as a SMILES string.

T1 sequence (P14416 1-414 isoform P14416-2): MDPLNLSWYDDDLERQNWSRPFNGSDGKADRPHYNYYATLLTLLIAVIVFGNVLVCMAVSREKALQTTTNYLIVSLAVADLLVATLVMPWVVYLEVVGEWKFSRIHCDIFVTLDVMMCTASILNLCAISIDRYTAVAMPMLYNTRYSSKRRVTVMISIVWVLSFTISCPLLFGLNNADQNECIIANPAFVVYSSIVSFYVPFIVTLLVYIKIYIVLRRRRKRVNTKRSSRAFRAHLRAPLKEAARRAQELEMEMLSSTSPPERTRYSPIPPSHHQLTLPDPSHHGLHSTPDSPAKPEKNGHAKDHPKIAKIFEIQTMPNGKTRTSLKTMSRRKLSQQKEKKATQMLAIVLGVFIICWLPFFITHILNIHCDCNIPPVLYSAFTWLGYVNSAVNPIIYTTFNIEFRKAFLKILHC
T3 sequence (P11229 whole entry): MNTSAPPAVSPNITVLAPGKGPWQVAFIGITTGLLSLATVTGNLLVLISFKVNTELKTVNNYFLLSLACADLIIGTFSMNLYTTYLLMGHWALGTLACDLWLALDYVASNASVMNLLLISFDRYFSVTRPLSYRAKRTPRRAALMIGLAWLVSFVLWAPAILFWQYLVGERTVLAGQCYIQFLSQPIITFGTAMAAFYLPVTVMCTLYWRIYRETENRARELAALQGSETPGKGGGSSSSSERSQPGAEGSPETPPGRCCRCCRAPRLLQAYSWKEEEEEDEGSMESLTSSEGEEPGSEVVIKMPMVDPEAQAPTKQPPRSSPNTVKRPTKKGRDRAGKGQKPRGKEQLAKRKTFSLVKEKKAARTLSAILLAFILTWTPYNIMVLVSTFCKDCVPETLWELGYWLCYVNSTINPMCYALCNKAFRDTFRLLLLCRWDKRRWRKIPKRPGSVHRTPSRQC
Chain of histamine H2 receptor (P25021 whole entry): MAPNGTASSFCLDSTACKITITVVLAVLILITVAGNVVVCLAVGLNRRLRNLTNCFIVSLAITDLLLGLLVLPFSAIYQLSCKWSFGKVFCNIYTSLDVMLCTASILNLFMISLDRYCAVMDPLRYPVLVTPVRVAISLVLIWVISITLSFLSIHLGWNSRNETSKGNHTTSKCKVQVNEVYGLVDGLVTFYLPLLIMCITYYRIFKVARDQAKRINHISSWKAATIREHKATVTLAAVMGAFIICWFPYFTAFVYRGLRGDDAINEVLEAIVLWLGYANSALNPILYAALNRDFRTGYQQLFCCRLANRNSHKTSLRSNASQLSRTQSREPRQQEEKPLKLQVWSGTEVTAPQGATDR
Chain of human ether-à-go-go (hERG) potassium channel (Q12809 whole entry): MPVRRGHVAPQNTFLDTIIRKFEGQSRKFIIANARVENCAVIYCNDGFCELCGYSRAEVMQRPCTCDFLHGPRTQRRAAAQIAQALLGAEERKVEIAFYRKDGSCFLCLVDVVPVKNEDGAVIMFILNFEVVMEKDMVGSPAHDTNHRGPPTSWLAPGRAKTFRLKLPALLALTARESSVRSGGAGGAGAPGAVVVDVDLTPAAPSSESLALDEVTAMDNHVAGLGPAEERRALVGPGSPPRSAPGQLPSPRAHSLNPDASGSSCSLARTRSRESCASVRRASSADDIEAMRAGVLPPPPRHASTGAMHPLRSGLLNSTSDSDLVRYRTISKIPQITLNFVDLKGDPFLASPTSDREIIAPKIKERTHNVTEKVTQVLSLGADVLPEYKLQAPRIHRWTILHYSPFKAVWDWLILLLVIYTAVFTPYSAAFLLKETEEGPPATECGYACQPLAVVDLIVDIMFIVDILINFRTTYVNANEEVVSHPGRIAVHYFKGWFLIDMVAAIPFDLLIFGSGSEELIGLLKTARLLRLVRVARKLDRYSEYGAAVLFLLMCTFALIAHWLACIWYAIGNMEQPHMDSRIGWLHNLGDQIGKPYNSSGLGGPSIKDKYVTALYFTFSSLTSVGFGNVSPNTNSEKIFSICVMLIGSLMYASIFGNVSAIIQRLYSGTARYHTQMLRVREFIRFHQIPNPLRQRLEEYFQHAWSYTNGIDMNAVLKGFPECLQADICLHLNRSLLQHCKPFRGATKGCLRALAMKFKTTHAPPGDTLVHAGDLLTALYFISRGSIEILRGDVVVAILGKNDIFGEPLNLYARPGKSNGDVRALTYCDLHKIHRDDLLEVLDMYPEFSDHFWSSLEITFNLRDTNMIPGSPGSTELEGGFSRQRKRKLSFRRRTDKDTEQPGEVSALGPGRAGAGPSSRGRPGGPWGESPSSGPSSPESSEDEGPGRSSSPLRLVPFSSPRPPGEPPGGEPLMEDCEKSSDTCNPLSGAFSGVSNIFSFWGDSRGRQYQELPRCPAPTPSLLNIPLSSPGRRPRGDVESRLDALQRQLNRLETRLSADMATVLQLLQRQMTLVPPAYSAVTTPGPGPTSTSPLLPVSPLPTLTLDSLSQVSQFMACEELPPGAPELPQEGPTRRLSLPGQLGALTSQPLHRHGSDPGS
T2 sequence (P20309 whole entry): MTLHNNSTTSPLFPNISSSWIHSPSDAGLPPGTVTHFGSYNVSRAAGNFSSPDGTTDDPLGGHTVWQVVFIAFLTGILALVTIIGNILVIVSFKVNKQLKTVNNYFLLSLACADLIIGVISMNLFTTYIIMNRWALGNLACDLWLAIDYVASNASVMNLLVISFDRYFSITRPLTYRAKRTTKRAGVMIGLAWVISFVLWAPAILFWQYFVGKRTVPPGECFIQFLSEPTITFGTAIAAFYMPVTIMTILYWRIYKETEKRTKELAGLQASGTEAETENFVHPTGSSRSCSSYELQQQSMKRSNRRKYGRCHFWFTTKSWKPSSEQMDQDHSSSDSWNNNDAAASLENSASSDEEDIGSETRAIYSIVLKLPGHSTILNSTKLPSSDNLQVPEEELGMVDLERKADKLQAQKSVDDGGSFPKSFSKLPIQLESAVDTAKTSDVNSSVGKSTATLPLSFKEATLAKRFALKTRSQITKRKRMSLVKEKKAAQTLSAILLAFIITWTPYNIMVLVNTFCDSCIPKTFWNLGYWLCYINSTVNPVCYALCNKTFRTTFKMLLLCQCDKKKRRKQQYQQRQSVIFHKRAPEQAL
Chain of histamine H1 receptor (P35367 whole entry): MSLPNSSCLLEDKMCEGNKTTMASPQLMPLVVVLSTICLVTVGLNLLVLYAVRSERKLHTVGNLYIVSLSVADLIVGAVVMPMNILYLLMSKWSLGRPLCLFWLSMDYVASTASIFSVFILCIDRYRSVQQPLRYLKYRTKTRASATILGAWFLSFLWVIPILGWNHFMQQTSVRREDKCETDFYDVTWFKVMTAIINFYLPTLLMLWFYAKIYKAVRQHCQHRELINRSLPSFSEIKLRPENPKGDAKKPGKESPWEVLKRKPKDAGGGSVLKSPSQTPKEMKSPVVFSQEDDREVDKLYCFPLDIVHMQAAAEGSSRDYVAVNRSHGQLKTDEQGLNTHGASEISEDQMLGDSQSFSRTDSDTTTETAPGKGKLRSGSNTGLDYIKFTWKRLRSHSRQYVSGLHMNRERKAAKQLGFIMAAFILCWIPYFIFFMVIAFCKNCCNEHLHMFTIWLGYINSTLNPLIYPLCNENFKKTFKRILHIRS
Chain of muscarinic M2 receptor (P08172 whole entry): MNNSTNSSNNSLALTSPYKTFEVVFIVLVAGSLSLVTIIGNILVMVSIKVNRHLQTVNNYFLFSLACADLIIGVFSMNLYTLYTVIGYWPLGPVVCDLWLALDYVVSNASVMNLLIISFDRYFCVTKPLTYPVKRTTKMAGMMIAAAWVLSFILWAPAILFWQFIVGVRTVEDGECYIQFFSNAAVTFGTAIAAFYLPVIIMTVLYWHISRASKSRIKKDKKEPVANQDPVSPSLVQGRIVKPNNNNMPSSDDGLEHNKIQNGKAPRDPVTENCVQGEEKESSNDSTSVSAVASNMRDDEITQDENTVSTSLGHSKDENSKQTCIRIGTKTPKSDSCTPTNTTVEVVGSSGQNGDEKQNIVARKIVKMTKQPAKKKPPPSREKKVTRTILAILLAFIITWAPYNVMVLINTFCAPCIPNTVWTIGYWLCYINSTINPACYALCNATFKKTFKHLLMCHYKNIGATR
T4 sequence (P08908 whole entry): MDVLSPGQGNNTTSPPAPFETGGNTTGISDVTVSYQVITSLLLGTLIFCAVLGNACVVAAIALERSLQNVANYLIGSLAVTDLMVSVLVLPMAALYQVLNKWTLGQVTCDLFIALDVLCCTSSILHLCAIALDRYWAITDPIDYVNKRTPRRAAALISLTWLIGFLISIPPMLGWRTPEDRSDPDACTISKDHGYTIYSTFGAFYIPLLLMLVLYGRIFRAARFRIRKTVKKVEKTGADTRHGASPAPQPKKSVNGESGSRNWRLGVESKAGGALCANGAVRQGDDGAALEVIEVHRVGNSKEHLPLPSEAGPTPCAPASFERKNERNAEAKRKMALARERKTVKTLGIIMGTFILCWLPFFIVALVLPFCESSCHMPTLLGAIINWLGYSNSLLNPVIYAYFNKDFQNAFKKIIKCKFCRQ
Chain of serotonin 5-HT3 receptor (P46098 24-478): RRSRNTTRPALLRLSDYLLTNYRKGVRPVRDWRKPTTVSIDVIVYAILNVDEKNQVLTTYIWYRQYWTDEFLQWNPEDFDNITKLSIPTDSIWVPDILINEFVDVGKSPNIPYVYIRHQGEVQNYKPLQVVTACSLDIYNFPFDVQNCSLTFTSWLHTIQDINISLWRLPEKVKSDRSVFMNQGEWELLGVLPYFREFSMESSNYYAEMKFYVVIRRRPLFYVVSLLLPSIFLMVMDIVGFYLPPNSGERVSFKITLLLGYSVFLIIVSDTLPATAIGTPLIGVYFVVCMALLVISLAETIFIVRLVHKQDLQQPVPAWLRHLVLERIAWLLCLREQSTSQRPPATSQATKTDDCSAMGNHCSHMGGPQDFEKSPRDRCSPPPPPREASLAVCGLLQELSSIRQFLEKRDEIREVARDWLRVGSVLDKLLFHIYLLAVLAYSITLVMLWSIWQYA

With `O=C(O)COCCN1CCN(C2=Nc3ccccc3Oc3ccc(Cl)cc32)CC1` [Compound 6], the “scratching induced by subcutaneous histamine” value in the data set with mice [1] was “not affected”. Moreover, in the data set on mice [2], the “number of head shakes” value is reported as “significantly reduced” and the “number of scratching bouts” value is on record as “significantly reduced”. The “fold lower affinity against D2 as compared to loxapine” value on human D2S receptor was “≈ 40 fold”. The compound also gave a Ki at human D2S receptor (mean [CI 95%]) of 1280 nM. The SLIGRL-induced scratching behavior entry in the data set with mice [3] was “significantly inhibited”. Further, the “impairment of mouse behavior” value with mice [4] (10 mg kg−1 i.p.) was “No obvious impairment of mouse behavior”. The “overt signs of seizures” value with mice [4] (systemic administration, doses up to 30 mg kg−1) is reported as “did not observe any overt signs of seizures”. The binding inhibition entry at histamine H1 receptor was “substantial binding”. Further, the “itch evoked by s.c. injection of β-alanine” value in the data set with mice [5] is reported as “ameliorated”.

As to `CN1CCN(C2=Nc3ccccc3Oc3ccc(Cl)cc32)CC1` [Loxapine, reference compound], the binding inhibition entry in the data set with Na+ channel was “higher than 50%”. Also, the inhibition at 10 µM (at muscarinic M3 receptor; at muscarinic M1 receptor; in data set [6]; in data set [8]; at serotonin 5-HT3 receptor; at histamine H2 receptor) was above 50% each time. The inhibition at 10 µM on muscarinic M2 receptor is above 50%. Moreover, the binding result in data set [7] is on record as “did not measurably bind”.
